From ChEMBL document CHEMBL3862021, “Eeyarestatin I derivatives with improved aqueous solubility” (Bioorg Med Chem Lett, 2016)
Converted amounts (≈) assume the structure as drawn. The source made the active and inactive calls. No cut-off for these calls is given here.

Columns and labels:
[1] = Terminal phase half life in mouse liver microsomes at 1 uM in presence of UDPGA by LC-MS/MS analysis; type: ADME; conditions: read-out: beta t1/2
[2] = Primary phase half life in mouse liver microsomes at 1 uM in presence of NADPH by LC-MS/MS analysis; type: ADME; conditions: read-out: alphat1/2
[3] = target: Transitional endoplasmic reticulum ATPase (Homo sapiens) (UniProt P55072); experiment: Inhibition of p97 in HEK293T cells assessed as induction of ER-stress by measuring ATF4 expression at 20 uM after 16 hrs by immunoblot analysis; type: cell-based; conditions: HEK-293T
Chain of Transitional endoplasmic reticulum ATPase (Homo sapiens) (P55072 2-806 limits assumed): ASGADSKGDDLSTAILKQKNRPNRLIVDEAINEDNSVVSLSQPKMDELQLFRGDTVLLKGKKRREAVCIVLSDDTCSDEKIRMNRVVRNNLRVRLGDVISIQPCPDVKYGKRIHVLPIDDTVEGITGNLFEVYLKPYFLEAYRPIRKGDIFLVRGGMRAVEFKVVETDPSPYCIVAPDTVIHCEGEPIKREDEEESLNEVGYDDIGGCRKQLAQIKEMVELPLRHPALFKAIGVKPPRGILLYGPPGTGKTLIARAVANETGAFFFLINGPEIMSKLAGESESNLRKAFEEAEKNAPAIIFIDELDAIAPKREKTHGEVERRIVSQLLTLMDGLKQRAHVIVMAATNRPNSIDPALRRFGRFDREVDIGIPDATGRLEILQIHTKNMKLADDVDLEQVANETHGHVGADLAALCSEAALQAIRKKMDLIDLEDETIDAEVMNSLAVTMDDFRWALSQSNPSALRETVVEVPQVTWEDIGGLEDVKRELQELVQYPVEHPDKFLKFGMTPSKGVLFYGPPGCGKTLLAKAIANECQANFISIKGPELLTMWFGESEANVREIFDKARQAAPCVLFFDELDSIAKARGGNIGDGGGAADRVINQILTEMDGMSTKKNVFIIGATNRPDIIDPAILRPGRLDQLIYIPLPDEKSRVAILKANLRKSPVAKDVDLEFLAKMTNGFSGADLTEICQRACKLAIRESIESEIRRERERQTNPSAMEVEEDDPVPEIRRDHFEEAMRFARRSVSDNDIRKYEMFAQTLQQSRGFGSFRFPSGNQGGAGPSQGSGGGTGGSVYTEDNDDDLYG

[4] = Half life in mouse plasma by LC-MS/MS analysis; type: ADME, cell-free
[5] = Primary phase half life in human liver microsomes at 1 uM in presence of NADPH by LC-MS/MS analysis; type: ADME; conditions: read-out: alphat1/2
[6] = Terminal phase half life in human liver microsomes at 1 uM in presence of UDPGA by LC-MS/MS analysis; type: ADME; conditions: read-out: beta t1/2
[7] = Thermodynamic solubility of the compound in DPBS after 24 hrs by LC-MS/MS analysis; type: physicochemical; conditions: read-out: Therm_solubility
[8] = Effect on endogenous p97 protein level in HEK293T cells up to 40 uM after 16 hrs by immunoblot analysis; type: ADME, cell-based; conditions: human, hek-293t
[9] = Antiproliferative activity against human MIAPaCa2 cells assessed as reduction in cell viability after 72 hrs by MTT assay; type: functional, cell-based; conditions: MIA PaCa-2, 72 h
[10] = target: Transitional endoplasmic reticulum ATPase (Homo sapiens) (UniProt P55072); experiment: Inhibition of p97 in HEK293T cells assessed as induction of ER-stress by measuring ATF3 expression up to 40 uM after 16 hrs by immunoblot analysis; type: cell-based; conditions: HEK-293T
[11] = Half life in human plasma by LC-MS/MS analysis; type: ADME, cell-free

| half-life at 1 µM [1] | half-life at 1 µM [2] | inhibition [3] | half-life [4] | half-life at 1 µM [5] | half-life at 1 µM [6] | solubility thermodynamic at 24 h [7] | inhibition [10] | half-life [11] | SMILES | Activity [8] | EC50 [9] |
| --- | --- | --- | --- | --- | --- | --- | --- | --- | --- | --- | --- |
| 16.5 h | 1.75 h | Active | 12.5 h | 2.07 h | 23.1 h | 2.3 µM (≈ 1.54 µg/mL) | Active | 9.5 h | COCCOc1ccc(NC(=O)N(O)C2N(c3ccc(Cl)cc3)C(=O)N(CC(=O)N/N=C/C=C/c3ccc([N+](=O)[O-])o3)C2(C)C)cc1 (stereo not given) | Non-Toxic | 5.4 µM |
| – | – | – | – | – | – | 64.2 µM (≈ 45.6 µg/mL) | – | – | COCCOc1ccc(NC(=O)N(O)C2N(c3ccc(OCCOC)cc3)C(=O)N(CC(=O)N/N=C/C=C/c3ccc([N+](=O)[O-])o3)C2(C)C)cc1 (stereo not given) | Non-Toxic | 38.4 µM |
| 14.4 h | 2.32 h | Active | 15.7 h | 0.53 h | 57.8 h | 2.8 µM (≈ 1.88 µg/mL) | Active | 17.2 h | COCCOc1ccc(N2C(=O)N(CC(=O)N/N=C/C=C/c3ccc([N+](=O)[O-])o3)C(C)(C)C2N(O)C(=O)Nc2ccc(Cl)cc2)cc1 (stereo not given) | Non-Toxic | 6.3 µM |
